Laboratory results published in publication PMC11576293, “New series of 4,6-diaryl pyrimidines: facile synthesis and antiproliferative activity as dual EGFR/VEGFR-2 inhibitors” (Frontiers in Chemistry, 2024).

How the values were obtained:
UACC-257 = test: NCI-60 single-dose screen; type: cell-based; conditions: Homo sapiens, single dose 10 µM, '-' = no inhibition, read-out: % Growth Inhibition
Outline: (§1)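 Single concentration of 10 μM applied to every line of the 60-cell-line NCI panel. Testing performed by NCI DTP.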

NCI-H23 = test: NCI-60 single-dose screen; type: cell-based; conditions: Homo sapiens, single dose 10 µM, '-' = no inhibition, read-out: % Growth Inhibition
Outline: as §1

MCF7 = test: NCI-60 single-dose screen; type: cell-based; conditions: Homo sapiens, single dose 10 µM, '-' = no inhibition, read-out: % Growth Inhibition
Outline: as §1

M14 = test: NCI-60 single-dose screen; type: cell-based; conditions: Homo sapiens, single dose 10 µM, '-' = no inhibition, read-out: % Growth Inhibition
Outline: as §1

ACHN 1 = test: NCI-60 single-dose screen; type: cell-based; conditions: Homo sapiens, single dose 10 µM, '-' = no inhibition, read-out: % Growth Inhibition
Outline: as §1

UO-31 = test: NCI-60 single-dose screen; type: cell-based; conditions: Homo sapiens, single dose 10 µM, '-' = no inhibition, read-out: % Growth Inhibition
Outline: as §1

MOLT-4 = test: NCI-60 single-dose screen; type: cell-based; conditions: Homo sapiens, single dose 10 µM, '-' = no inhibition, read-out: % Growth Inhibition
Outline: as §1

SK-MEL-2 = test: NCI-60 single-dose screen; type: cell-based; conditions: Homo sapiens, single dose 10 µM, '-' = no inhibition, read-out: % Growth Inhibition
Outline: as §1

PC-3 = test: NCI-60 single-dose screen; type: cell-based; conditions: Homo sapiens, single dose 10 µM, '-' = no inhibition, read-out: % Growth Inhibition
Outline: as §1

OVCAR-8 = test: NCI-60 single-dose screen; type: cell-based; conditions: Homo sapiens, single dose 10 µM, '-' = no inhibition, read-out: % Growth Inhibition
Outline: as §1

K-562 = test: NCI-60 single-dose screen; type: cell-based; conditions: Homo sapiens, K562, single dose 10 µM, '-' = no inhibition, read-out: % Growth Inhibition
Outline: as §1

BT-549 = test: NCI-60 single-dose screen; type: cell-based; conditions: Homo sapiens, single dose 10 µM, '-' = no inhibition, read-out: % Growth Inhibition
Outline: as §1

MDA-MB-468 = test: NCI-60 single-dose screen; type: cell-based; conditions: Homo sapiens, single dose 10 µM, '-' = no inhibition, read-out: % Growth Inhibition
Outline: as §1

TK-10 = test: NCI-60 single-dose screen; type: cell-based; conditions: Homo sapiens, single dose 10 µM, '-' = no inhibition, read-out: % Growth Inhibition
Outline: as §1

IGROV1 = test: NCI-60 single-dose screen; type: cell-based; conditions: Homo sapiens, IGROV-1, single dose 10 µM, '-' = no inhibition, read-out: % Growth Inhibition
Outline: as §1

EKVX = test: NCI-60 single-dose screen; type: cell-based; conditions: Homo sapiens, single dose 10 µM, '-' = no inhibition, read-out: % Growth Inhibition
Outline: as §1

HCC-2998 = test: NCI-60 single-dose screen; type: cell-based; conditions: Homo sapiens, single dose 10 µM, '-' = no inhibition, read-out: % Growth Inhibition
Outline: as §1

SK-OV-3 = test: NCI-60 single-dose screen; type: cell-based; conditions: Homo sapiens, single dose 10 µM, '-' = no inhibition, read-out: % Growth Inhibition
Outline: as §1

MDA-MB-435 = test: NCI-60 single-dose screen; type: cell-based; conditions: Homo sapiens, single dose 10 µM, '-' = no inhibition, read-out: % Growth Inhibition
Outline: as §1

CAKI-1 = test: NCI-60 single-dose screen; type: cell-based; conditions: Homo sapiens, single dose 10 µM, '-' = no inhibition, read-out: % Growth Inhibition
Outline: as §1

RPMI-8226 = test: NCI-60 single-dose screen; type: cell-based; conditions: Homo sapiens, single dose 10 µM, '-' = no inhibition, read-out: % Growth Inhibition
Outline: as §1

SK-MEL-28 = test: NCI-60 single-dose screen; type: cell-based; conditions: Homo sapiens, single dose 10 µM, '-' = no inhibition, read-out: % Growth Inhibition
Outline: as §1

UACC-62 = test: NCI-60 single-dose screen; type: cell-based; conditions: Homo sapiens, single dose 10 µM, '-' = no inhibition, read-out: % Growth Inhibition
Outline: as §1

HL-60(TB) = test: NCI-60 single-dose screen; type: cell-based; conditions: Homo sapiens, single dose 10 µM, '-' = no inhibition, read-out: % Growth Inhibition
SF-295 = test: NCI-60 single-dose screen; type: cell-based; conditions: Homo sapiens, single dose 10 µM, '-' = no inhibition, read-out: % Growth Inhibition
Outline: as §1

NCI-H460 = test: NCI-60 single-dose screen; type: cell-based; conditions: Homo sapiens, single dose 10 µM, '-' = no inhibition, read-out: % Growth Inhibition
Outline: as §1

MALME-3M = test: NCI-60 single-dose screen; type: cell-based; conditions: Homo sapiens, single dose 10 µM, '-' = no inhibition, read-out: % Growth Inhibition
Outline: as §1

HT29 = test: NCI-60 single-dose screen; type: cell-based; conditions: Homo sapiens, HT-29, single dose 10 µM, '-' = no inhibition, read-out: % Growth Inhibition
Outline: as §1

A498 = test: NCI-60 single-dose screen; type: cell-based; conditions: Homo sapiens, single dose 10 µM, '-' = no inhibition, read-out: % Growth Inhibition
Outline: as §1

NCI-H522 = test: NCI-60 single-dose screen; type: cell-based; conditions: Homo sapiens, single dose 10 µM, '-' = no inhibition, read-out: % Growth Inhibition
Outline: as §1

NCI-H322M = test: NCI-60 single-dose screen; type: cell-based; conditions: Homo sapiens, single dose 10 µM, '-' = no inhibition, read-out: % Growth Inhibition
Outline: as §1

HCT-15 = test: NCI-60 single-dose screen; type: cell-based; conditions: Homo sapiens, single dose 10 µM, '-' = no inhibition, read-out: % Growth Inhibition
Outline: as §1

OVCAR-3 = test: NCI-60 single-dose screen; type: cell-based; conditions: Homo sapiens, single dose 10 µM, '-' = no inhibition, read-out: % Growth Inhibition
Outline: as §1

SN12C = test: NCI-60 single-dose screen; type: cell-based; conditions: Homo sapiens, single dose 10 µM, '-' = no inhibition, read-out: % Growth Inhibition
Outline: as §1

KM12 = test: NCI-60 single-dose screen; type: cell-based; conditions: Homo sapiens, single dose 10 µM, '-' = no inhibition, read-out: % Growth Inhibition
Outline: as §1

MDA-MB231/ATCC = test: NCI-60 single-dose screen; type: cell-based; conditions: Homo sapiens, MDA-MB-231, single dose 10 µM, '-' = no inhibition, read-out: % Growth Inhibition
Outline: as §1

NCI/ADR-RES = test: NCI-60 single-dose screen; type: cell-based; conditions: Homo sapiens, single dose 10 µM, '-' = no inhibition, read-out: % Growth Inhibition
Outline: as §1

SF-268 = test: NCI-60 single-dose screen; type: cell-based; conditions: Homo sapiens, single dose 10 µM, '-' = no inhibition, read-out: % Growth Inhibition
Outline: as §1

SW-620 = test: NCI-60 single-dose screen; type: cell-based; conditions: Homo sapiens, single dose 10 µM, '-' = no inhibition, read-out: % Growth Inhibition
Outline: as §1

SF-539 = test: NCI-60 single-dose screen; type: cell-based; conditions: Homo sapiens, single dose 10 µM, '-' = no inhibition, read-out: % Growth Inhibition
Outline: as §1

SNB-19 = test: NCI-60 single-dose screen; type: cell-based; conditions: Homo sapiens, single dose 10 µM, '-' = no inhibition, read-out: % Growth Inhibition
Outline: as §1

LOX IMVI = test: NCI-60 single-dose screen; type: cell-based; conditions: Homo sapiens, single dose 10 µM, '-' = no inhibition, read-out: % Growth Inhibition
Outline: as §1

SR = test: NCI-60 single-dose screen; type: cell-based; conditions: Homo sapiens, single dose 10 µM, '-' = no inhibition, read-out: % Growth Inhibition
Outline: as §1

SNB-75 = test: NCI-60 single-dose screen; type: cell-based; conditions: Homo sapiens, single dose 10 µM, '-' = no inhibition, read-out: % Growth Inhibition
Outline: as §1

DU-145 = test: NCI-60 single-dose screen; type: cell-based; conditions: Homo sapiens, single dose 10 µM, '-' = no inhibition, read-out: % Growth Inhibition
Outline: as §1

RXF 393 = test: NCI-60 single-dose screen; type: cell-based; conditions: Homo sapiens, single dose 10 µM, '-' = no inhibition, read-out: % Growth Inhibition
Outline: as §1

CCRF-CEM = test: NCI-60 single-dose screen; type: cell-based; conditions: Homo sapiens, single dose 10 µM, '-' = no inhibition, read-out: % Growth Inhibition
Outline: as §1

In the case of COc1ccc(-c2cc(-c3ccc(Cl)cc3)nc(SCc3ccccc3)n2)cc1 [Compound 14, 2-(Benzylthio)-4-(4-chlorophenyl)-6-(4-methoxyphenyl)pyrimidine], the inhibition at 10 µM (UACC-257) is reported as < 0%, the inhibition at 10 µM (NCI-H23) is reported as < 0% and the inhibition at 10 µM (MCF7) is reported as < 0%. For the same compound, the inhibition at 10 µM (M14) was < 0%, the inhibition at 10 µM (ACHN 1) was 11% and the inhibition at 10 µM (UO-31) was < 0%. For the same compound, the inhibition at 10 µM (MOLT-4) was 4.54%, the inhibition at 10 µM (SK-MEL-2) was 7.79% and the inhibition at 10 µM (PC-3) was 20.7%. The inhibition at 10 µM (OVCAR-8) was < 0%, the inhibition at 10 µM (K-562) was 11.7% and the inhibition at 10 µM (BT-549) was < 0%. The inhibition at 10 µM (MDA-MB-468) was < 0%, the inhibition at 10 µM (TK-10) was < 0% and the inhibition at 10 µM (IGROV1) was < 0%. For the same compound, the inhibition at 10 µM (EKVX) was 2.76%, the inhibition at 10 µM (HCC-2998) was < 0% and the inhibition at 10 µM (SK-OV-3) was < 0%. For the same compound, the inhibition at 10 µM (MDA-MB-435) was 3.68%, the inhibition at 10 µM (CAKI-1) was 2.18% and the inhibition at 10 µM (RPMI-8226) was < 0%. The inhibition at 10 µM (SK-MEL-28) was < 0%, the inhibition at 10 µM (UACC-62) was < 0% and the inhibition at 10 µM (HL-60(TB)) was 18.1%. For the same compound, the inhibition at 10 µM (SF-295) was < 0%, the inhibition at 10 µM (NCI-H460) was < 0% and the inhibition at 10 µM (MALME-3M) was < 0%. For the same compound, the inhibition at 10 µM (HT29) was 8.96%, the inhibition at 10 µM (A498) was < 0% and the inhibition at 10 µM (NCI-H522) was < 0%. For the same compound, the inhibition at 10 µM (NCI-H322M) was < 0%, the inhibition at 10 µM (HCT-15) was 4.95% and the inhibition at 10 µM (OVCAR-3) was 6.22%. For the same compound, the inhibition at 10 µM (SN12C) was 10.4%, the inhibition at 10 µM (KM12) was < 0% and the inhibition at 10 µM (MDA-MB231/ATCC) was < 0%. The inhibition at 10 µM (NCI/ADR-RES) was < 0%, the inhibition at 10 µM (SF-268) was < 0% and the inhibition at 10 µM (SW-620) was < 0%. For the same compound, the inhibition at 10 µM (SF-539) was < 0%, the inhibition at 10 µM (SNB-19) was < 0% and the inhibition at 10 µM (LOX IMVI) was 3.14%. For the same compound, the inhibition at 10 µM (SR) was 10.2%, the inhibition at 10 µM (SNB-75) was < 0% and the inhibition at 10 µM (DU-145) was 1.74%. For the same compound, the inhibition at 10 µM (RXF 393) was < 0%, the inhibition at 10 µM (CCRF-CEM) was < 0% and the melting point was 288 to 290 °C.
